The term IC50 denotes the point on the concentration scale where inhibition reaches its midpoint. Lower therefore signals higher potency.

The target in the assay is T1, UCP1 (Mus musculus, UniProt P12242).
T1 construct: native full-length protein in the inner mitochondrial membrane; mitoplasts from brown (or beige) fat; no tags
T1 sequence (P12242 1-307): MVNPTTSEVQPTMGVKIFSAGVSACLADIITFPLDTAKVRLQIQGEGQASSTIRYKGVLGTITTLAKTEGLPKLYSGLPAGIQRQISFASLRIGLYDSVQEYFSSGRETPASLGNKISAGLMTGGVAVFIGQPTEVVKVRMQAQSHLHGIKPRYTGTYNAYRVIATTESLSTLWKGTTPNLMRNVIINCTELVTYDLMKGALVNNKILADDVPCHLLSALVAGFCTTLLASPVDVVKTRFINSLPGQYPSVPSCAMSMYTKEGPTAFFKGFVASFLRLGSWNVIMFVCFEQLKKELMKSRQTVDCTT
The experiment in a line: whole-mitoplast patch-clamp, inhibition of H+ current. It counts as biochemical. The conditions noted are these: Mg2+-free ATP, cytosolic side; current activated by 0.2 mM oleic acid / 10 mM MβCD; symmetrical pH 7.0; competitive with fatty acid; figure reproduced from the same laboratory's Fedorenko et al. 2012.

The molecule `Nc1ncnc2c1ncn2[C@@H]1O[C@H](COP(=O)(O)OP(=O)(O)OP(=O)(O)O)[C@@H](O)[C@H]1O` [ATP] came in with an IC50 of 2.1 ± 0.1 µM.
